One assay relates to H2122 human lung cancer cells. In words: In vitro growth inhibition of human cancer cells under anchorage-independent conditions in soft agar (colony count). It counts as cell-based. As to conditions: NCI-H2122, 336 h, 50% reduction in colony number vs DMSO controls, two weeks incubation, MTT stain. Here is the method:
In vitro growth inhibition of human cancer cells: Growth inhibition of human lung cancer cells by the compounds was measured under anchorage-independent conditions in soft agar. H2122 human lung cancer cells were seeded into 6-well plates (coated with a base layer made of 2 ml of 1% low-melting-point agarose) at 15,000 cells per well in 3 ml of 0.4% low-melting-point agarose containing various concentration of drug. Two weeks after incubation, cells were stained with 1 mg/ml MTT and colonies were counted under a microscope. […] Data are analyzed using Excel (Microsoft), and IC50 values are determined using Prism (Graphpad). The results of the in vitro H2122 growth inhibition activity of the representative compounds of the present invention are shown in the following Table: […]
Turning to `CCCc1n[nH]c2c1C(c1cc(Cl)cc(Cl)c1O)C(C#N)=C(N)O2` (stereo not drawn) [Compound 1], the IC50 was 2.21 µM.

Turning to `CCCc1n[nH]c2c1C(c1cc(OC)ccc1OC)C(C#N)=C(N)O2` (stereo not drawn) [Compound 2], the IC50 was found to be 3.56 µM.

`CCCc1n[nH]c2c1C(c1ccc3ccccc3c1)C(C#N)=C(N)O2` (stereo not drawn) [Compound 3] had an IC50 of 3.72 µM.

As for `CCCc1nn(C)c2c1C(c1cc(Cl)cc(Cl)c1O)C(C#N)=C(N)O2` (stereo not drawn) [Compound 4], it took 1.59 µM to reach half-maximal inhibition (IC50).

`CCCc1nn(C)c2c1C(c1cc(OC)ccc1OC)C(C#N)=C(N)O2` (stereo not drawn) [Compound 5] showed an IC50 of 3.86 µM.

For the compound `Cc1n[nH]c2c1C(c1ccc(OC(F)(F)F)cc1)C(C#N)=C(N)O2` (stereo not drawn) [Compound 7], the IC50 came out at 3.21 µM.

`COc1cc(OC)c(C2C(C#N)=C(N)Oc3[nH]nc(C)c32)c(OC)c1` (stereo not drawn) [Compound 8] returned an IC50 of 3.28 µM.

In the case of `Cc1n[nH]c2c1C(c1ccc(C(F)(F)F)cc1)C(C#N)=C(N)O2` (stereo not drawn) [Compound 9], it took 5.05 µM to reach half-maximal inhibition (IC50).

For `Cc1n[nH]c2c1C(c1ccc(-n3ccnc3)cc1)C(C#N)=C(N)O2` (stereo not drawn) [Compound 10], 0.9 µM corresponded to half-maximal inhibition (IC50).

Compound `COc1cccc(OC)c1C1C(C#N)=C(N)Oc2c1c(C)nn2C` (stereo not drawn) [Compound 11] came in with an IC50 of 2.19 µM.

`Cc1nn(C)c2c1C(c1ccc(-c3ccccc3)cc1)C(C#N)=C(N)O2` (stereo not drawn) [Compound 12] had an IC50 of 4 µM.

The compound `COc1cc(C2C(C#N)=C(N)Oc3c2c(C)nn3C)ccc1C(F)(F)F` (stereo not drawn) [Compound 13] showed an IC50 of 2.99 µM.

Regarding `Cc1nn(C)c2c1C(c1cccc(-c3cncnc3)c1)C(C#N)=C(N)O2` (stereo not drawn) [Compound 14], 5.05 µM corresponded to half-maximal inhibition (IC50).

`COc1cc(C(F)(F)F)ccc1C1C(C#N)=C(N)Oc2c1c(C)nn2C` (stereo not drawn) [Compound 15] gave an IC50 of 1.71 µM.

On to `Cc1nn(C)c2c1C(c1ccc(-n3ccnc3C)cc1)C(C#N)=C(N)O2` (stereo not drawn) [Compound 16], for which the IC50 is 1.02 µM.

`Cn1nc(C(C)(C)C)c2c1OC(N)=C(C#N)C2c1ccc(-n2ccnc2)cc1` (stereo not drawn) [Compound 17] had an IC50 of 1.35 µM.

Regarding `Cn1nc(C2CCCC2)c2c1OC(N)=C(C#N)C2c1ccc(-n2ccnc2)cc1` (stereo not drawn) [Compound 18], the midpoint of inhibition, the IC50, lay at 1.28 µM.

In turn, `Cn1nc(-c2cc3ccccc3o2)c2c1OC(N)=C(C#N)C2c1ccc(-n2ccnc2)cc1` (stereo not drawn) [Compound 20] displayed an IC50 of 0.49 µM.

Compound `Cn1nc(Cc2ccccc2)c2c1OC(N)=C(C#N)C2c1ccc(-n2ccnc2)cc1` (stereo not drawn) [Compound 21] had an IC50 of 0.89 µM.

Turning to `Cn1nc(-c2ccccn2)c2c1OC(N)=C(C#N)C2c1ccc(-n2ccnc2)cc1` (stereo not drawn) [Compound 22], the IC50 was 2.04 µM.

The compound `Cn1nc(-c2cnccn2)c2c1OC(N)=C(C#N)C2c1ccc(-n2ccnc2)cc1` (stereo not drawn) [Compound 23] returned an IC50 of 1.08 µM.

In the case of `Cc1nn(C)c2c1C(c1ccc(-c3ncccn3)cc1)C(C#N)=C(N)O2` (stereo not drawn) [Compound 24], the IC50 amounted to 6.13 µM.

`CC(C)c1nn(C)c2c1C(c1ccc(-n3ccnc3)cc1)C(C#N)=C(N)O2` (stereo not drawn) [Compound 25] registered an IC50 of 1.07 µM.

As for `CC(C)c1nn(C)c2c1C(c1ccc(C(F)(F)F)cc1)C(C#N)=C(N)O2` (stereo not drawn) [Compound 26], the IC50 is 2.96 µM.

For `Cc1nn(C)c2c1C(c1ccc(-n3cnc4ccccc43)cc1)C(C#N)=C(N)O2` (stereo not drawn) [Compound 27], inhibition was half-maximal at 0.84 µM (IC50).

`Cn1nc(-c2cc3ccccc3o2)c2c1OC(N)=C(C#N)C2c1ccc(C(F)(F)F)cc1` (stereo not drawn) [Compound 28] gave an IC50 of 3.42 µM.

The compound `Cn1nc(-c2cc3ccccc3o2)c2c1OC(N)=C(C#N)C2c1ccc(OC(F)(F)F)cc1` (stereo not drawn) [Compound 29] gave an IC50 of 3.91 µM.

For `Cn1nc(-c2cc3ccccc3o2)c2c1OC(N)=C(C#N)C2c1cc(Cl)cc(Cl)c1O` (stereo not drawn) [Compound 30], inhibition was half-maximal at 1.71 µM (IC50).

In turn, `COc1ccc(OC)c(C2C(C#N)=C(N)Oc3c2c(-c2cc4ccccc4o2)nn3C)c1` (stereo not drawn) [Compound 31] had an IC50 of 6.21 µM.

In the case of `Cc1nnc(-c2ccc(C3C(C#N)=C(N)Oc4c3c(C)nn4C)cc2)o1` (stereo not drawn) [Compound 32], the IC50 came out at 2.91 µM.

Take `Cc1nn(C)c2c1C(c1ccc(-n3cncn3)cc1)C(C#N)=C(N)O2` (stereo not drawn) [Compound 33]: half-maximal inhibition (IC50) was put at 2.49 µM.

Compound `Cc1nn(C)c2c1C(c1ccc(N(C)C)cc1)C(C#N)=C(N)O2` (stereo not drawn) [Compound 34] had an IC50 greater than 10 µM.

With `CC(=O)Nc1ccc(C2C(C#N)=C(N)Oc3c2c(C)nn3C)cc1` (stereo not drawn) [Compound 35], half-maximal inhibition (IC50) required 2.78 µM.

`Cc1nn(C)c2c1C(c1ccc(N3CCCC3)cc1)C(C#N)=C(N)O2` (stereo not drawn) [Compound 36] showed an IC50 of 8.39 µM.

As for `Cc1nn(C)c2c1C(c1ccc(-n3cccc3)cc1)C(C#N)=C(N)O2` (stereo not drawn) [Compound 37], inhibition was half-maximal at 6.02 µM (IC50).

On to `Cc1nn(C)c2c1C(c1ccc(-n3cccn3)cc1)C(C#N)=C(N)O2` (stereo not drawn) [Compound 38], for which the IC50 came out at 5.75 µM.

For `Cc1cn(-c2ccc(C3C(C#N)=C(N)Oc4c3c(C)nn4C)cc2)cn1` (stereo not drawn) [Compound 39], the IC50 was 5.11 µM.

As for `Cc1nccn1-c1ccc(C2C(C#N)=C(N)Oc3c2c(-c2cc4ccccc4o2)nn3C)cc1` (stereo not drawn) [Compound 40], the IC50 was determined as 1.59 µM.

On to `Cn1nc(-c2n[nH]c3ccccc23)c2c1OC(N)=C(C#N)C2c1ccc(-n2ccnc2)cc1` (stereo not drawn) [Compound 41], for which half-maximal inhibition (IC50) was put at 1.82 µM.

In the case of `Cc1nn(C(C)(C)C)c2c1C(c1ccc(-n3ccnc3)cc1)C(C#N)=C(N)O2` (stereo not drawn) [Compound 42], the IC50 was determined as 1.12 µM.

Compound `Cc1nn(-c2ccccc2)c2c1C(c1ccc(-n3ccnc3)cc1)C(C#N)=C(N)O2` (stereo not drawn) [Compound 43] yielded an IC50 of 0.7 µM.

Turning to `Cc1nn(-c2ccc(F)cc2)c2c1C(c1ccc(-n3ccnc3)cc1)C(C#N)=C(N)O2` (stereo not drawn) [Compound 44], the IC50 was 0.98 µM.

For `COc1ccc(-n2nc(C)c3c2OC(N)=C(C#N)C3c2ccc(-n3ccnc3)cc2)cc1` (stereo not drawn) [Compound 45], half-maximal inhibition (IC50) was put at 1.62 µM.

In the case of `Cc1nn(-c2ccncc2)c2c1C(c1ccc(-n3ccnc3)cc1)C(C#N)=C(N)O2` (stereo not drawn) [Compound 46], half-maximal inhibition (IC50) was put at 2.08 µM.

With `COc1ccc(-c2n[nH]c3c2C(c2ccc(-n4ccnc4)cc2)C(C#N)=C(N)O3)cc1` (stereo not drawn) [Compound 47], half-maximal inhibition (IC50) was put at 1.32 µM.

For the compound `COc1ccc(-c2nn(C)c3c2C(c2ccc(-n4ccnc4)cc2)C(C#N)=C(N)O3)cc1` (stereo not drawn) [Compound 48], inhibition was half-maximal at 1.32 µM (IC50).

On to `COc1ccc(-c2nn(-c3ccccc3)c3c2C(c2ccc(-n4ccnc4)cc2)C(C#N)=C(N)O3)cc1` (stereo not drawn) [Compound 49], for which the IC50 came to 3.15 µM.

For another assay, the system named is MiaPaCa2 pancreatic cell line.
Test: not given
As to conditions: inhibitory effects were modest; cited from earlier work.
Regarding `COC(=O)[C@H](CC(C)C)NC(=O)N1CCN(Cc2nc[nH]c2C)C(=O)[C@@H]1Cc1ccccc1` [GGTI-2417], the “inhibition of in vitro growth and survival” value was “inhibit the in vitro growth and survival”.

(Values after patent publication US20180170942A1, “POLYCYCLIC DERIVATIVES TARGETING RAL GTPASES AND THEIR THERAPEUTICAL APPLICATIONS” (NANTBIO, INC., priority 2015, published 2018).)
